Assay results as given in patent US12534748B2, “Engineered beta-subunit of tryptophan synthase for production of non-canonical amino acids” (California Institute of Technology, priority 2015, dated 2026).
Where “and” joins values, the source holds several entries; their conditions need not be identical. Identical values can stand only once.

How the values were obtained:
[1] = molecular target: T1, Archaeoglobus fulgidus TrpB variant AfTrpB^0B2 (P25L, E30G, I80V, F285S, T303S, T332A), SEQ ID NO: 22 (Archaeoglobus fulgidus, UniProt O28672, I80V/L285S/P25L/P30G/T303S/T332A); test: Tryptophan formation from L-serine and indole, kinetics of AfTrpB^0B2
T1 sequence (O28672 with tags, fused parts or gaps P25L/P30G/I80V/L285S/T303S/T332A): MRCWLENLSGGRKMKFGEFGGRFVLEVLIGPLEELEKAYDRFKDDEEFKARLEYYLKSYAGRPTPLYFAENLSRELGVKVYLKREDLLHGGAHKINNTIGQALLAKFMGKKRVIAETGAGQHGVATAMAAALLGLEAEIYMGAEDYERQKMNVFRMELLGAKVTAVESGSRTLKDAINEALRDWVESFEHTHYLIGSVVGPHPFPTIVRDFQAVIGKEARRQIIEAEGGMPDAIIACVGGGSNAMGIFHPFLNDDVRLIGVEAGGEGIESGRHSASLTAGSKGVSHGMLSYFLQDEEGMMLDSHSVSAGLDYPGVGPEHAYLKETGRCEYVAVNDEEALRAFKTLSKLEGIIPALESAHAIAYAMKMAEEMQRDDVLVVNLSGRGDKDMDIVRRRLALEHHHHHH
Method: The three TrpB homologs and their corresponding 0B2 variants were expressed and purified, and then their kinetic properties (kcat and KM of indole) were measured.

[2] = molecular target: T2, Pyrococcus furiosus tryptophan synthase beta-subunit PfTrpB, wild type, SEQ ID NO: 2 (Pyrococcus furiosus, UniProt Q8U093); test: Tryptophan formation from L-serine and indole, kinetics of wild-type PfTrpB; type: biochemical; details: 75° C., pH 8.0, Trp formation at 290 nm
T2 sequence (Q8U093 with tags, fused parts or gaps): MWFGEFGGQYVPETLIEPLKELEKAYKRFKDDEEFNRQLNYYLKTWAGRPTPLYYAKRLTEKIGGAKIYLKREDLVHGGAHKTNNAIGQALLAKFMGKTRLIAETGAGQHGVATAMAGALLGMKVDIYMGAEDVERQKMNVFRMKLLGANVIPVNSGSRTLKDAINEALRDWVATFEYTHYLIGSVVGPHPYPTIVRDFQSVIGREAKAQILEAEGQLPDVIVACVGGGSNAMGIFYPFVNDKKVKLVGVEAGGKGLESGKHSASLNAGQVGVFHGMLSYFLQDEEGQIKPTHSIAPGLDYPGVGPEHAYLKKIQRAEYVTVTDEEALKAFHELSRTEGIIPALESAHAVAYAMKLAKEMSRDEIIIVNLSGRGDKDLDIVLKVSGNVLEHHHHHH
Method: Cloning, Expression, and Purification of PfTrpA and PfTrpB. The genes encoding PfTrpB (UNIPROT ID Q8U093) and PfTrpA (UNIPROT ID Q8U094) were obtained as gBlocks and cloned into pET22(b)+ for expression in E. coli BL21 E. cloni EXPRESS cells (Lucigen). Heterologous protein expression of PfTrpA and PfTrpB was performed in Terrific Broth with 100 μg/mL ampicillin (TBamp) and induced with 500 mM IPTG (final concentration 1 mM). PfTrpB was purified via a HisTrap HP column. PfTrpA was purified via a Q HP HiTrap column (flow-through), followed by ammonium sulfate precipitation, and hydrophobic interaction chromatography on a phenyl Sepharose HP HiTrap column (FIG. 3).
Kinetics and UV-Vis Spectroscopy. Data were collected between 550 and 250 nm on a UV1800 Shimadzu spectrophotometer (Shimadzu) using 0.25-20 μM of enzyme in 200 mM potassium phosphate (pH 8.0) in a quartz cuvette. Samples were incubated at 75° C. for >3 min to ensure a stable temperature was reached. PfTrpB activity (kcat) was measured by monitoring tryptophan formation at 290 nm using Δe290=1.89 mM^−1·cm^−1.
Selection of the Parent Enzyme, TrpB, from Pyrococcus furiosus. […]

c1ccc2[nH]ccc2c1 [indole]
kcat ([1]; 60° C.): 0.51 s⁻¹ | increase in kcat ([1]; compared to wild type): 7 fold | kcat [2]: 0.31 s⁻¹ and 0.31 ± 0.02 s⁻¹
